Measurements taken from patent publication US12599572B2, “Solid lipid nanoparticles of curcumin” (priority 2018, dated 2026).
≈ marks a conversion by molar mass, not a printed value. Read-outs that look alike come from different tables or passages of the source.

Key:
[1] = Photostability study (ICH); type: physicochemical
Procedure: The above samples were placed in photostability chamber and exposed to light providing illumination of not less than 1.2 million lux hours for 10 days. After 10 days the containers were withdrawn and […] evaluated for total drug content, entrapment efficiency, particle size, zeta-potential and PDI. Samples of free drug, […] and C-SLNbent were analysed for total drug content.

[2] = In-vitro release (Franz-diffusion cells, dialysis membrane); type: physicochemical
Procedure: Jacketed franz-diffusion cells were used for the determination of in-vitro release of free curcumin and curcumin from C-SLNaq. These cells consist of the donor and the receptor chamber between which dialysis membrane is positioned. The dialysis membrane was soaked in double distilled water for 12 h prior to use. The whole system was water jacketed and thermostatically controlled by an external circulating water bath at 37° C.±1° C. The used receptor media consisted of 50% ethanol in distilled water. […] The receptor media was stirred throughout the experiment, using a magnetic stirrer. Iml aliquots were withdrawn regularly from the receptor compartment at various times starting at 30 min and replaced by an equal volume of fresh receptor medium. The samples were analysed, immediately, spectrophotometrically at 425 nm.

Solubility of curcumin = type: physicochemical
[3] = Pharmacokinetic studies, single oral dose; type: in vivo, Wistar Rats; settings: rats, 100 mg/kg single oral dose
Procedure: For in vivo pharmacokinetic studies, female Wistar Rats were used. The animals were divided into 3 groups (n=3). […] The blood samples (0.5 ml) were withdrawn from retro-orbital plexus at different time intervals and collected into microcentrifuge tubes containing EDTA. Plasma was separated by centrifuging the blood samples at 10000 rpm for 6 min at 5° C. After centrifugation, the plasma obtained was stored at −20° C. until analysis. […] To 50 μl of plasma samples in an eppendorf tube, 150 μl of methanol and 300 μl of acetonitrile:water (1:1) was added. The sample was vortexed for 5 min and centrifuged at 15,000 rpm to separate precipitated proteins. Supernatant was transferred to suitably labelled tubes. The sample was filtered through 0.2 μm syringe filter and was used for analysis using the developed Ultra high pressure liquid chromatography (UPLC) method. The pharmacokinetic parameters were calculated using non-compartmental model. The area under the concentration-time curve from time zero to time t (AUCo-t) was calculated using the trapezoidal method. Peak concentration (Cmax) and the time at which the peak concentration is achieved (Tmax), were obtained directly from the individual concentration-time profiles. All values were corrected for the spiked concentration. The area under the concentration-time curve from time zero to infinity was calculated by: AUCo-x=AUCo-+Ct/Ke, where Ct is the drug concentration observed at the last time and Ke is the apparent elimination rate constant obtained from the terminal slope of the individual concentration-time curves after logarithmic transformation of the concentration values and application of linear regression. AUMC was determined by plotting concentration*time (ct) versus time (t) using trapezoidal method. Mean residence time (MRT) was calculated by: MRT=AUMC/AUC.

[4] = combined with piperine, rats (Shoba et al., 1998); cited from earlier work
[5] = Degradation studies (hydrolytic stability at pH 1.2, 6.8, 7.4 and 9); type: physicochemical; settings: for k value: zero order
Procedure: It was further diluted to 5 μg/ml with respective buffers (pH 1.2, pH 6.8, pH 7.4 and pH 9). In case of C-SLNaq, Iml dispersion was placed in a dialysis bag and dialyzed against methanol (100 ml) at room temperature for 45 minutes to remove unentrapped drug. […] The stock solution and sample solution were prepared in amber coloured volumetric flasks to avoid photodegradation. The solutions were prepared and incubated at 37° C. […] […] Presence of water quenches the fluorescent intensity of curcumin. The samples were thus analysed subsequently using the UV/Visible spectrophotometer at λmax425 nm. The absorbance read at zero time was considered as 100% and change in concentration and % degradation was determined accordingly.
The graph between concentration versus time, log concentration versus time and percent drug remaining versus time were plotted.

COc1cc(C=CC(=O)CC(=O)C=Cc2ccc(O)c(OC)c2)ccc1O [Free curcumin, 1,7-bis(4-hydroxy-3-methoxyphenyl)-1,6-hepadiene-3,5-dione]
TDC % ([1]; Amber glass, 0 day): 100.00 ± 0% | TDC % ([1]; Amber glass, 10 days): 78.31 ± 7.1% | TDC % ([1]; Transparent, 0 day): 100.00 ± 0% | TDC % ([1]; Transparent, 10 days): 65.51 ± 7.5% | degradation ([1]; amber coloured containers, 10 days): 21.7% | degradation ([1]; transparent containers, 10 days): 35% | order of release [2]: first order | release model followed [2]: Hixon model | time over which drug was released ([2]; receptor 50% ethanol, 37° C.): ≤ 8 h | solubility (Solubility of curcumin; 50% (v/v) ethanol, aqueous with cosolvent or surfactant or cyclodextrin): 693 µg/mL (≈ 1880 µM) | solubility (Solubility of curcumin; water, read-out: aqueous solubility): 0.6 µg/mL (≈ 1.63 µM) | solubility (Solubility of curcumin; water, room temperature, read-out: Solubility in water): 0.003 ± 0.002 µg/mL (≈ 0.00814 µM) | AUC(0-inf) ([3]; female, Wistar, rat, plasma): 2.69 ng·h/mL | Cmax ([3]; female, Wistar, rat, plasma): 1.79 ng/mL | MRT ([3]; female, Wistar, rat, plasma): 2 h | Tmax ([3]; female, Wistar, rat, plasma): 2 h | AUMC0-∞ [3]: 5.38 h^2*ng/ml | increase in the oral bioavailability [4]: 154% | half-life at 5 μg/ml ([5]; alkaline borate buffer pH 9, pH 9): 0.669 h | half-life at 5 μg/ml ([5]; buffer pH 1.2, pH 1.2): 17.3 h | order of degradation kinetics ([5]; investigated pH conditions (C-SLN: except pH 9)): zero order | Percentage remaining ([5]; pH 1.2, 0 h): 100.00 ± 0.06% | Percentage remaining ([5]; pH 1.2, 0.08 h): 89.23 ± 0.02% | Percentage remaining ([5]; pH 1.2, 0.25 h): 88.29 ± 0.01% | Percentage remaining ([5]; pH 1.2, 0.5 h): 85.60 ± 0.01% | Percentage remaining ([5]; pH 1.2, 1 h): 87.24 ± 0.001% | Percentage remaining ([5]; pH 1.2, 2 h): 72.37 ± 0.02% | Percentage remaining ([5]; pH 1.2, 3 h): 68.74 ± 0.03% | Percentage remaining ([5]; pH 1.2, 4 h): 62.76 ± 0.01% | Percentage remaining ([5]; pH 1.2, 5 h): 61.01 ± 0.01% | Percentage remaining ([5]; pH 1.2, 6 h): 53.40 ± 0.02% | Percentage remaining ([5]; pH 1.2, 24 h): 15.76 ± 0.01% | degradation ([5]; pH 1.2, 24 h): ≤ 85% | degradation ([5]; pH 1.2, upto 6 h): ≤ 50% | degradation ([5]; pH 1.2 medium, 4h): ~40% | Percentage remaining ([5]; pH 6.8, 0 h): 100.00 ± 0.04% | Percentage remaining ([5]; pH 6.8, 0.08 h): 94.93 ± 0.06% | Percentage remaining ([5]; pH 6.8, 0.25 h): 87.63 ± 0.04% | Percentage remaining ([5]; pH 6.8, 0.5 h): 81.95 ± 0.08% | Percentage remaining ([5]; pH 6.8, 1 h): 79.72 ± 0.06% | Percentage remaining ([5]; pH 6.8, 2 h): 66.73 ± 0.05% | Percentage remaining ([5]; pH 6.8, 3 h): 62.68 ± 0.07% | Percentage remaining ([5]; pH 6.8, 4 h): 57.81 ± 0.05% | Percentage remaining ([5]; pH 6.8, 5 h): 43.61 ± 0.08% | Percentage remaining ([5]; pH 6.8, 6 h): 23.12 ± 0.04% | degradation ([5]; pH 6.8, 6 h): 77% | Percentage remaining ([5]; pH 6.8, 24 h): 11.36 ± 0.04% | degradation ([5]; pH 6.8, 24 h): 89% | Percentage remaining ([5]; pH 7.4, 0 h): 100.0 ± 0.060% | Percentage remaining ([5]; pH 7.4, 0.08 h): 96.33 ± 0.02% | Percentage remaining ([5]; pH 7.4, 0.25 h): 93.81 ± 0.04% | Percentage remaining ([5]; pH 7.4, 0.5 h): 84.17 ± 0.04% | Percentage remaining ([5]; pH 7.4, 1 h): 75.92 ± 0.04% | Percentage remaining ([5]; pH 7.4, 2 h): 67.20 ± 0.03% | Percentage remaining ([5]; pH 7.4, 3 h): 61.01 ± 0.03% | Percentage remaining ([5]; pH 7.4, 4 h): 49.08 ± 0.04% | Percentage remaining ([5]; pH 7.4, 5 h): 40.60 ± 0.03% | Percentage remaining ([5]; pH 7.4, 6 h): 24.31 ± 0.01% | degradation ([5]; pH 7.4, 6 h): 75% | Percentage remaining ([5]; pH 7.4, 24 h): 13.99 ± 0.01% | degradation ([5]; pH 7.4, 24 h): 77% | Percentage remaining ([5]; pH 9, 0 h): 100.00 ± 0.004% | Percentage remaining ([5]; pH 9, 0.08 h): 82.59 ± 0.009% | Percentage remaining ([5]; pH 9, 0.25 h): 61.43 ± 0.004% | Percentage remaining ([5]; pH 9, 0.5 h): 32.76 ± 0.006% | Percentage remaining ([5]; pH 9, 1 h): 20.48 ± 0.001% | Percentage remaining ([5]; pH 9, 2 h): 15.70 ± 0.002% | Percentage remaining ([5]; pH 9, 3 h): 9.90 ± 0.003% | Percentage remaining ([5]; pH 9, 4 h): 2.39 ± 0.004% | degradation ([5]; pH 9, 4 h): approximately 98% | half-life at 5 μg/ml ([5]; phosphate buffer pH 6.8, pH 6.8): 1.32 h | half-life at 5 μg/ml ([5]; phosphate buffer pH 7.4, pH 7.4): 9.4 h | k value ([5]; pH 1.2): 0.039 | k value ([5]; pH 6.8): 0.52 | k value ([5]; pH 7.4): 0.073 | k value ([5]; pH 9): 0.95
